Values after ≈ are worked out from the molar mass of the structure shown.

One assay relates to KB. The assay can be described thus: Cytotoxicity against human KB cells after 48 hrs by MTT assay. The format is functional, cell-based.
Conditions: not given
In general terms: Formazan colour is commonly taken as a measure of viable cells.
For orientation: IC50 means the concentration that inhibits the measured activity by half. For the compound `C=C[C@@]1(C)COC(=O)[C@]12OC(c1ccccc1)=CC2=O` [HYPERLACTONE C], the IC50 is > 100 µg/mL.

On to `COc1cccc2c1C(=O)c1c(O)c3c(c(O)c1C2=O)C[C@@](O)(C(C)=O)C[C@@H]3O[C@H]1C[C@H](N)[C@H](O)[C@H](C)O1` [DAUNORUBICIN], for which the IC50 is 0.22 µg/mL (≈ 0.417 µM).

Take `C=C[C@@]1(C)COC(=O)[C@]12OC([C@H](C)CC)=CC2=O` [HYPERLACTONE A]: the IC50 was > 100 µg/mL.

On to `COC(=O)[C@@]1(O)C(=O)[C@](C)(CC=C(C)C)C(=O)C12C[C@H]1[C@@H](CC[C@@]1(C)O)[C@@](C)(O)C2` (some centres undefined) [BIYOUYANAGIOL], for which the IC50 is > 100 µg/mL.

`COc1cc(/C=C/C(=O)OC[C@H](Cc2ccc(O)c(OC)c2)[C@H](CO)Cc2ccc(O)c(OC)c2)ccc1O` [HANULTARIN]: half-maximal inhibition (IC50) was put at 33.7 µg/mL (≈ 62.6 µM).

In a further assay the test system is COLO 205. The assay can be described thus: Cytotoxicity against human COLO205 cells after 48 hrs by MTT assay. Format: functional, cell-based. The settings on record: COLO 205, 48 h.
For the compound `C=C[C@@]1(C)COC(=O)[C@]12OC(c1ccccc1)=CC2=O` [HYPERLACTONE C], half-maximal inhibition (IC50) was put at 58.5 µg/mL (≈ 216 µM).

With `COc1cccc2c1C(=O)c1c(O)c3c(c(O)c1C2=O)C[C@@](O)(C(C)=O)C[C@@H]3O[C@H]1C[C@H](N)[C@H](O)[C@H](C)O1` [DAUNORUBICIN], the IC50 is 0.5 µg/mL (≈ 0.948 µM).

Regarding `C=C[C@@]1(C)COC(=O)[C@]12OC([C@H](C)CC)=CC2=O` [HYPERLACTONE A], the IC50 is > 100 µg/mL.

Turning to `COC(=O)[C@@]1(O)C(=O)[C@](C)(CC=C(C)C)C(=O)C12C[C@H]1[C@@H](CC[C@@]1(C)O)[C@@](C)(O)C2` (some centres undefined) [BIYOUYANAGIOL], the IC50 is > 100 µg/mL.

`COc1cc(/C=C/C(=O)OC[C@H](Cc2ccc(O)c(OC)c2)[C@H](CO)Cc2ccc(O)c(OC)c2)ccc1O` [HANULTARIN] showed an IC50 of 16.8 µg/mL (≈ 31.2 µM).

For another assay, the system named is K562. The assay can be described thus: Cytotoxicity against human doxorubicin-resistant K562 cells after 48 hrs by MTT assay. The settings on record: K562, 48 h. The format is functional, cell-based.
`C=C[C@@]1(C)COC(=O)[C@]12OC(c1ccccc1)=CC2=O` [HYPERLACTONE C] registered an IC50 of 32.8 µg/mL (≈ 121 µM).

Turning to `COc1cccc2c1C(=O)c1c(O)c3c(c(O)c1C2=O)C[C@@](O)(C(C)=O)C[C@@H]3O[C@H]1C[C@H](N)[C@H](O)[C@H](C)O1` [DAUNORUBICIN], the IC50 is 15.2 µg/mL (≈ 28.8 µM).

`C=C[C@@]1(C)COC(=O)[C@]12OC([C@H](C)CC)=CC2=O` [HYPERLACTONE A] came in with an IC50 of 47.1 µg/mL (≈ 188 µM).

On to `COC(=O)[C@@]1(O)C(=O)[C@](C)(CC=C(C)C)C(=O)C12C[C@H]1[C@@H](CC[C@@]1(C)O)[C@@](C)(O)C2` (some centres undefined) [BIYOUYANAGIOL], for which the IC50 is > 100 µg/mL.

The compound `COc1cc(/C=C/C(=O)OC[C@H](Cc2ccc(O)c(OC)c2)[C@H](CO)Cc2ccc(O)c(OC)c2)ccc1O` [HANULTARIN] showed an IC50 of 33.1 µg/mL (≈ 61.5 µM).

The next assay concerns K562. The assay can be described thus: Cytotoxicity against human K562 cells after 48 hrs by MTT assay. Format: functional, cell-based. The settings on record: K562, 48 h.
With `C=C[C@@]1(C)COC(=O)[C@]12OC(c1ccccc1)=CC2=O` [HYPERLACTONE C], the IC50 was > 100 µg/mL.

For the compound `COc1cccc2c1C(=O)c1c(O)c3c(c(O)c1C2=O)C[C@@](O)(C(C)=O)C[C@@H]3O[C@H]1C[C@H](N)[C@H](O)[C@H](C)O1` [DAUNORUBICIN], inhibition was half-maximal at 0.45 µg/mL (≈ 0.853 µM) (IC50).

For `C=C[C@@]1(C)COC(=O)[C@]12OC([C@H](C)CC)=CC2=O` [HYPERLACTONE A], the IC50 was > 100 µg/mL.

For `COC(=O)[C@@]1(O)C(=O)[C@](C)(CC=C(C)C)C(=O)C12C[C@H]1[C@@H](CC[C@@]1(C)O)[C@@](C)(O)C2` (some centres undefined) [BIYOUYANAGIOL], the IC50 was > 100 µg/mL.

Compound `COc1cc(/C=C/C(=O)OC[C@H](Cc2ccc(O)c(OC)c2)[C@H](CO)Cc2ccc(O)c(OC)c2)ccc1O` [HANULTARIN] gave an IC50 of 35.2 µg/mL (≈ 65.4 µM).

Test system in another assay: not listed separately
The experiment in a line: Cytotoxicity against human multidrug resistant KB-C2 cells after 48 hrs by MTT assay in the presence of colchicine. The format is functional, cell-based. The settings on record: KB-C2, 48 h.
Take `C=C[C@@]1(C)COC(=O)[C@]12OC(c1ccccc1)=CC2=O` [HYPERLACTONE C]: the IC50 is 51.8 µg/mL.

In the case of `C=C[C@@]1(C)COC(=O)[C@]12OC([C@H](C)CC)=CC2=O` [HYPERLACTONE A], the IC50 was 70.8 µg/mL.

Turning to `COC(=O)[C@@]1(O)C(=O)[C@](C)(CC=C(C)C)C(=O)C12C[C@H]1[C@@H](CC[C@@]1(C)O)[C@@](C)(O)C2` (some centres undefined) [BIYOUYANAGIOL], the IC50 amounted to 47.8 µg/mL.

`COc1cc(/C=C/C(=O)OC[C@H](Cc2ccc(O)c(OC)c2)[C@H](CO)Cc2ccc(O)c(OC)c2)ccc1O` [HANULTARIN]: the IC50 is 20.9 µg/mL.

The test system of the next assay is MCF7. The experiment in a line: Cytotoxicity against human MCF7 cells after 48 hrs by MTT assay. The format is functional, cell-based. The settings on record: MCF7, 48 h.
As for `C=C[C@@]1(C)COC(=O)[C@]12OC(c1ccccc1)=CC2=O` [HYPERLACTONE C], the IC50 is 77.7 µg/mL (≈ 287 µM).

In the case of `COc1cccc2c1C(=O)c1c(O)c3c(c(O)c1C2=O)C[C@@](O)(C(C)=O)C[C@@H]3O[C@H]1C[C@H](N)[C@H](O)[C@H](C)O1` [DAUNORUBICIN], the IC50 was 0.33 µg/mL (≈ 0.626 µM).

For the compound `C=C[C@@]1(C)COC(=O)[C@]12OC([C@H](C)CC)=CC2=O` [HYPERLACTONE A], the IC50 is > 100 µg/mL.

Turning to `COC(=O)[C@@]1(O)C(=O)[C@](C)(CC=C(C)C)C(=O)C12C[C@H]1[C@@H](CC[C@@]1(C)O)[C@@](C)(O)C2` (some centres undefined) [BIYOUYANAGIOL], the IC50 was > 100 µg/mL.

`COc1cc(/C=C/C(=O)OC[C@H](Cc2ccc(O)c(OC)c2)[C@H](CO)Cc2ccc(O)c(OC)c2)ccc1O` [HANULTARIN] yielded an IC50 of 18.9 µg/mL (≈ 35.1 µM).

Test system in another assay: not listed separately
The assay can be described thus: Cytotoxicity against human multidrug resistant KB-C2 cells after 48 hrs by MTT assay. The format is functional, cell-based. The settings on record: KB-C2, 48 h.
On to `C=C[C@@]1(C)COC(=O)[C@]12OC(c1ccccc1)=CC2=O` [HYPERLACTONE C], for which the IC50 was > 100 µg/mL.

In the case of `COc1cccc2c1C(=O)c1c(O)c3c(c(O)c1C2=O)C[C@@](O)(C(C)=O)C[C@@H]3O[C@H]1C[C@H](N)[C@H](O)[C@H](C)O1` [DAUNORUBICIN], the IC50 is > 100 µg/mL.

For `C=C[C@@]1(C)COC(=O)[C@]12OC([C@H](C)CC)=CC2=O` [HYPERLACTONE A], the IC50 is > 100 µg/mL.

`COC(=O)[C@@]1(O)C(=O)[C@](C)(CC=C(C)C)C(=O)C12C[C@H]1[C@@H](CC[C@@]1(C)O)[C@@](C)(O)C2` (some centres undefined) [BIYOUYANAGIOL]: the IC50 was > 100 µg/mL.

Consider `COc1cc(/C=C/C(=O)OC[C@H](Cc2ccc(O)c(OC)c2)[C@H](CO)Cc2ccc(O)c(OC)c2)ccc1O` [HANULTARIN], for which the IC50 amounted to 20.7 µg/mL (≈ 38.4 µM).
